From publication PMC8706998, “Lipid Nanocarriers-Loaded Nanocomposite as a Suitable Platform to Release Antibacterial and Antioxidant Agents for Immediate Dental Implant Placement Restorative Treatment” (Pharmaceutics, 2021)
Several values for one entry are separate records, joined by “and”; a condition that tells them apart may be missing. Identical values can stand only once.

Tests used:
[1] = system: Staphylococcus aureus ATCC 25923 strain, growing as planktonic cells; experiment: Kill curve assay; format: cell-based; details: ca. 0.1 mg/mL CPX (highest amount in BioQ-CPX); data not shown
Procedure: Kill curve assays were performed to test the antimicrobial efficacy of BioQ-CPX, BioQ, and the Blank CTS matrix against the indicator pathogen Staphylococcus aureus ATCC 25923 strain, growing as planktonic cells. Briefly, a single colony of S. aureus strain was picked up and pre-cultivated (ca. 16 h) at 37 °C with shacking (160 rpm) in tryptone soy broth medium (hereinafter named as TSB; Merck, Milan, Italy). The same medium was solidified by adding 15 g/L of bacteriological agar when needed. Bacterial cells were then inoculated [0.05% v/v corresponding to ca. 5 × 10^5 colony forming units (CFU) per mL of culture] in TSB medium amended with increasing concentrations (i.e., 1, 2.5, and 5 mg/mL) of the above-mentioned samples. The set up bacterial cultures were challenged for 24 h according to the same pre-culturing conditions. The actual number of viable S. aureus CFU/mL—who survived the challenge exerted by BioQ-CPX, BioQ, and Blank matrix—was evaluated through the spot plate count method and compared to unchallenged cultures. The data are reported as average values (n = 3) of the CFU/mL in the logarithmic (Log10) scale with standard deviation (SD).

[2] = system: S. aureus cells growing as a biofilm; experiment: Biofilm inhibition, crystal violet staining; format: cell-based, Staphylococcus aureus; details: 5 mg BioQ-CPX in 200 μL culture, CPX at the same concentration as in BioQ-CPX; 24 h, 37 °C
Procedure: Briefly, pre-cultivated S. aureus cells for 16 h at 37 °C were inoculated (1% v/v corresponding to ca. 1 × 10^7 CFU/mL) in TSB medium. The set-up culture was aliquoted (200 μL) in a 96-well microtiter plate. […] The microtiter plate was then incubated for 24 h at 37 °C under static mode, allowing for bacterial biofilm formation. After the incubation period, bacterial cultures have been disposed, while each well was washed 3 time with 200 μL of sterile physiological (NaCl 0.9% w/v) solution to remove loosely adherent cells. Then, S. aureus biofilms were stained by adding 200 μL of an aqueous crystal violet (0.1% w/v) solution at room temperature for 15 min. Subsequently, wells were washed 5 times with 200 μL of physiological solution to remove the excess of unbound crystal violet and left to dry for 20 min at 65 °C. Finally, crystal violet was solubilized by adding 200 μL of an acetic acid (30% v/v) solution, the absorbance (Abs) being read at 600 nm using a DU-730 Life Science spectrophotometer (Beckman Coulter, Brea, CA, USA). Unchallenged cultures were used as reference biofilms (positive control), while wells containing only the medium utilized in this study were used as a negative control. The percentage of biofilm inhibition was calculated as follows: Biofilm inhibition (%)=(Abs positive control−Abs challenge)/Abs positive control×100

[3] = Ex vivo permeation/penetration experiments in Franz-type cells; format: in vitro ADME, pig; details: from 30 mg BioQ-CPX
Procedure: Tissue specimens were obtained from the vestibular area of the retromolar trigone derived from 6–8-month-old pigs supplied by the Municipal Slaughterhouse of Villabate (Palermo, Italy) since withdrawn from animals intended for human consumption. By a refrigerated transport box, the specimens were immediately transferred to the laboratory within 1 h from animal sacrifice and surgically treated to remove both adipose and connective tissues in excess. Afterward, they were dipped for 30 min in a 5% THR (w/v) isotonic solution and then stored at −80 °C for a minimum period of one week. Before the permeation/penetration experiments, tissue samples were accurately washed to remove the cryoprotectant, and, subsequently, thermal shocked to obtain the buccal mucosa. Briefly, tissue samples were dipped for 30 s in a pre-warmed (70 °C) isotonic solution, and then the mucosa was carefully peeled off from the connective tissue, obtaining the heat-separated epithelium along with the intact basal lamina. Finally, it was equilibrated in an isotonic solution for 3 h by replacing the medium every 15 min to remove all the biological matter, which could affect the analysis, before use.
The ex vivo permeation/penetration studies were carried out using vertical Franz-type diffusion cells. Briefly, appropriate sections of buccal mucosa were mounted between the donor and the acceptor chambers filled with 1 mL of citrate buffer pH 5.5 and 15 mL of citrate buffer pH 5.5 amended with acetic acid 0.1% (v/v), Acys 0.002% (w/v), and β-CD 3% (w/v). The whole system was equilibrated at 37 ± 0.5 °C for 30 min. Afterward, the medium was removed from the donor compartment, promptly replaced with 30 mg of BioQ-CPX, and soaked with 0.2 mL of citrate buffer pH 5.5. Every 30 min, aliquots (0.5 mL) were withdrawn from the acceptor chamber and immediately replaced with the same volume of fresh acceptor fluid to maintain the sink conditions. Experiments were carried out at 37 ± 0.5 °C in the dark and under constant stirring, being stopped at different time points ranging from 1 to 6 h. The amount of permeated QRC and CPX were quantified by UV–Vis analysis. Data are reported as means ± SE (n = 6).
Briefly, the mucosa was dipped into 2 mL of methanol and warmed up to 60 °C. The extraction procedure was performed twice, and the collected extraction liquors were transferred into a 10 mL flask and brought to volume with fresh methanol. Thus, QRC and CPX amounts were determined by UV–Vis analysis. Results are reported as means ± SE.

[4] = CPX release study, Franz diffusion cell with cellulose membrane; format: physicochemical; details: CPX release from BioQ-CPX, data up to 9 h
Procedure: (§1) The system was submerged in 15 mL of the same medium; (b) Franz diffusion cells (Permeagear, flat flange joint, 9 mm orifice diameter, 15 mL acceptor volume, SES GmbH-Analysesysteme, Bechenheim, Germany) consisting in a donor chamber filled with 10 mg of powder and soaked with 0.5 mL of citrate buffer pH 5.5, and an acceptor chamber filled with 15 mL of the same medium plus glacial acetic acid 0.01% (v/v). A cellulose dialysis membrane (Medicell Membranes, London, UK: MWCO: 12–14,000 Da) previously soaked with the acceptor fluid, was inserted between the two compartments.
(§2) QRC release studies were carried out using a modified transwell permeable support (0.45 µm) filled with 5 mg of the BioQ-CPX powder and soaked with 0.2 mL of citrate buffer pH 5.5. The entire system was dipped inside a beaker filled with 8 mL of 1-octanol as a suitable acceptor fluid. […] The experiments were carried out at 37 ± 0.5 °C under constant stirring and protected by light exposure while, immediately after sampling, opportune volumes of fresh acceptor fluid were added to maintain the sink conditions. Data are reported as means ± SE (n = 6). Drug release profiles were elaborated using OriginPro 8.5 software and fitted with semi-empirical model equations. Fittings were validated by using R^2 value where a p-value of less than 0.05 was considered statistically significant.

[5] = CPX release study, dialysis tube method; format: physicochemical; details: from BioQ-CPX, citrate buffer pH 5.5 + acetic acid, after 1.5 h
Procedure: as §1, §2

maximum amount accumulated into the mucosa ([3]; after 5 h): about 5 % of drugs dose | amount accumulated into the mucosa ([3]; first hour from application): about 4 % of dose | CPX released [5]: 80%
Structure (SMILES): O=C(O)c1cn(C2CC2)c2cc(N3CCNCC3)c(F)cc2c1=O [CPX, Ciprofloxacin]
effect on bacterial growth [1]: did prevent bacterial growth | S. aureus biofilm formation inhibition [2]: ca. 55% | Korsmeyer-Peppas n [4]: 0.8280 ± 0.0125 and 0.8280 | Korsmeyer-Peppas with Tlag n [4]: 0.8293 | First-Order k ([4]; time in hours): 0.1359 | Korsmeyer-Peppas k ([4]; time in hours): 0.1134 | Korsmeyer-Peppas with Tlag k ([4]; time in hours): 0.1113 | Korsmeyer-Peppas with Tlag: Tlag ([4]; time in hours): −0.031 | Zero-Order k ([4]; time in hours): 0.079
